Test results from ChEMBL document CHEMBL1201862, “PubChem BioAssay data set” (2004).
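The compound was tested at five concentrations on cells cultured in 96-well plates, with a 48-hour exposure period. The concentration for 50% growth inhibition is given as GI50.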 Activity calls are given as the source filed them. Cut-off read from the data, not from the text of the source: active = GI50 up to about 1.1 µM and inactive = higher.

Columns and labels:
Test in all cases: NCI-60 cell line screen, 48 h
UACC-257 = system: UACC-257
HT-29 = system: HT-29
UACC-62 = system: UACC-62
OVCAR-8 = system: OVCAR-8
KM12 = system: KM12
LOX IMVI = system: LOX IMVI
SN12C = system: SN12C
U-251 = system: U-251
MOLT-4 = system: MOLT-4
NCI-H226 = system: NCI-H226
Hs-578T = system: Hs-578T
SNB-19 = system: SNB-19
EKVX = system: EKVX
RPMI-8226 = system: RPMI-8226
UO-31 = system: UO-31
SF-539 = system: SF-539
SF-268 = system: SF-268
T47D = system: T47D
RXF 393 = system: RXF 393
SNB-75 = system: SNB-75

SMILES | GI50 (UACC-257) | GI50 (HT-29) | GI50 (UACC-62) | GI50 (OVCAR-8) | GI50 (KM12) | GI50 (LOX IMVI) | GI50 (SN12C) | GI50 (U-251) | GI50 (MOLT-4) | GI50 (NCI-H226) | GI50 (Hs-578T) | GI50 (SNB-19) | GI50 (EKVX) | GI50 (RPMI-8226) | GI50 (UO-31) | GI50 (SF-539) | GI50 (SF-268) | GI50 (T47D) | GI50 (RXF 393) | GI50 (SNB-75)
CC1CCCC(CC(=O)O)(CC(=O)O)C1 (stereo not drawn) | > 100 µM (inactive) | > 100 µM (inactive) | > 100 µM (inactive) | > 100 µM (inactive) | > 100 µM (inactive) | > 100 µM (inactive) | > 100 µM (inactive) | > 100 µM (inactive) | 48.1 µM (inactive) | > 100 µM (inactive) | > 100 µM (inactive) | > 100 µM (inactive) | > 100 µM (inactive) | > 100 µM (inactive) | > 100 µM (inactive) | > 100 µM (inactive) | > 100 µM (inactive) |  |  | 
O=C(O)c1ccc(Oc2nc3ccccc3s2)cc1 | > 100 µM (inactive) | > 100 µM (inactive) | > 100 µM (inactive) | > 100 µM (inactive) | > 100 µM (inactive) | > 100 µM (inactive) | > 100 µM (inactive) | > 100 µM (inactive) | > 100 µM (inactive) | > 100 µM (inactive) | 64.4 µM (inactive) | > 100 µM (inactive) | > 100 µM (inactive) | 74 µM (inactive) | > 100 µM (inactive) | > 100 µM (inactive) | > 100 µM (inactive) | > 100 µM (inactive) | > 100 µM (inactive) | 
Cc1sc2nc(-c3ccc([N+](=O)[O-])cc3)c(/C=N/N=C(N)N)n2c1C | 1.46 µM (inactive) | 0.432 µM (active) | 1.73 µM (inactive) | 0.53 µM (active) | 0.301 µM (active) | 0.398 µM (active) | 1.33 µM (inactive) | 0.179 µM (active) | 0.83 µM (active) | 1.84 µM (inactive) | 1.61 µM (inactive) | 0.721 µM (active) | 1.17 µM (inactive) | 0.468 µM (active) | 1.62 µM (inactive) | 1.72 µM (inactive) | 1.65 µM (inactive) | 0.664 µM (active) | 0.942 µM (active) | 
CSC(SC)=C(C(=O)c1ccc(Cl)cc1)n1c(=O)sc2cc(Br)ccc21 | > 100 µM (inactive) | 98.6 µM (inactive) | > 100 µM (inactive) | > 100 µM (inactive) | > 100 µM (inactive) | > 100 µM (inactive) | > 100 µM (inactive) | > 100 µM (inactive) | 18.7 µM (inactive) | > 100 µM (inactive) | > 100 µM (inactive) | > 100 µM (inactive) | > 100 µM (inactive) | > 100 µM (inactive) | > 100 µM (inactive) | > 100 µM (inactive) | > 100 µM (inactive) | > 100 µM (inactive) | > 100 µM (inactive) | 
CCC(C)C(=O)OC1C(=O)OC2CC3C(C)=CC(=O)C(O)C3(C)C3C4(O)OCC23C1C(C)C4O (stereo not drawn) | 0.0223 µM (active) |  | < 0.0184 µM (active) | < 0.01 µM (active) | < 0.0107 µM (active) | < 0.01 µM (active) | 0.0632 µM (active) | < 0.0107 µM (active) |  | < 0.016 µM (active) | < 0.0202 µM (active) | < 0.0152 µM (active) | 0.264 µM (active) | < 0.0111 µM (active) | 0.0324 µM (active) | < 0.01 µM (active) | < 0.0188 µM (active) | < 0.0166 µM (active) |  | < 0.0204 µM (active)
CCOC(=O)c1cn(C)c(=S)n2c1nc1ccccc12 | > 100 µM (inactive) |  | 21.8 µM (inactive) | 30.8 µM (inactive) | 98.9 µM (inactive) | 56 µM (inactive) | > 100 µM (inactive) | > 100 µM (inactive) | 95.7 µM (inactive) | 60.7 µM (inactive) |  | 83.8 µM (inactive) | > 100 µM (inactive) | 30.9 µM (inactive) | 4.73 µM (inactive) | > 100 µM (inactive) |  | > 100 µM (inactive) | > 100 µM (inactive) | > 100 µM (inactive)
O=C(c1ccco1)N(Cc1cccnc1)C(=S)N(Cc1cccnc1)C(=O)c1ccco1 | 14 µM (inactive) | 17.6 µM (inactive) | 15.2 µM (inactive) | 19.4 µM (inactive) | 3.9 µM (inactive) | 5.05 µM (inactive) | 10.6 µM (inactive) | 16.3 µM (inactive) | 11 µM (inactive) | 19.5 µM (inactive) | 23.3 µM (inactive) | 30.8 µM (inactive) | 19.8 µM (inactive) |  | 15 µM (inactive) | 11.1 µM (inactive) | 18.7 µM (inactive) | 24.5 µM (inactive) | 28.7 µM (inactive) | 38.8 µM (inactive)
CCN1C(NN)=NS(=O)(=O)c2ccccc21 | > 100 µM (inactive) | > 100 µM (inactive) | > 100 µM (inactive) | > 100 µM (inactive) | > 100 µM (inactive) | > 100 µM (inactive) | > 100 µM (inactive) | > 100 µM (inactive) | > 100 µM (inactive) | > 100 µM (inactive) | > 100 µM (inactive) | > 100 µM (inactive) | > 100 µM (inactive) |  | > 100 µM (inactive) | > 100 µM (inactive) | > 100 µM (inactive) | > 100 µM (inactive) | > 100 µM (inactive) | 
COC(=O)N1CC[C@@H]2CCC=C(c3cccc4c3OCO4)[C@@H]21 | 78.5 µM (inactive) | 79.6 µM (inactive) | 81.7 µM (inactive) | > 100 µM (inactive) | > 100 µM (inactive) | > 100 µM (inactive) | > 100 µM (inactive) | > 100 µM (inactive) | 26.1 µM (inactive) | > 100 µM (inactive) | > 100 µM (inactive) | 74.3 µM (inactive) | 79.4 µM (inactive) |  | 40.7 µM (inactive) | > 100 µM (inactive) | > 100 µM (inactive) | 32.1 µM (inactive) | > 100 µM (inactive) | 17.7 µM (inactive)
CCOC(=O)Cc1ccc(Nc2nc3cc(C(F)(F)F)ccc3nc2C(=O)OCC)cc1 | > 100 µM (inactive) | > 100 µM (inactive) | 48.8 µM (inactive) | 67.5 µM (inactive) | > 100 µM (inactive) | > 100 µM (inactive) | > 100 µM (inactive) | 45.2 µM (inactive) | > 100 µM (inactive) | 17.6 µM (inactive) | 30 µM (inactive) | 27.5 µM (inactive) | > 100 µM (inactive) |  | > 100 µM (inactive) | 14.7 µM (inactive) | 37.3 µM (inactive) | > 100 µM (inactive) | 20.5 µM (inactive) | 20.7 µM (inactive)
CCOC(=O)c1[nH]cc(C)c1-c1ccn(-c2ccccc2)c1 | 35.3 µM (inactive) | 29.6 µM (inactive) | 36.8 µM (inactive) | 38.3 µM (inactive) | 19.6 µM (inactive) | 41.8 µM (inactive) | 89.7 µM (inactive) | 49.4 µM (inactive) | 18.3 µM (inactive) | 51.5 µM (inactive) | 25.9 µM (inactive) |  | 27 µM (inactive) |  | 25.8 µM (inactive) | > 100 µM (inactive) | 44.7 µM (inactive) | 35 µM (inactive) | 36.8 µM (inactive) | 13.3 µM (inactive)
CCCCOCCOCCOC1=CC(=O)c2c(O)ccc(O)c2C1=O | 1.58 µM (inactive) |  | 1.82 µM (inactive) |  | 1.83 µM (inactive) | 1.86 µM (inactive) | 1.82 µM (inactive) | 1.85 µM (inactive) | 2.65 µM (inactive) | 2.01 µM (inactive) | 2.55 µM (inactive) | 1.79 µM (inactive) | 5.19 µM (inactive) | 2.4 µM (inactive) | 1.58 µM (inactive) | 2.03 µM (inactive) | 4.26 µM (inactive) | 2.65 µM (inactive) | 1.94 µM (inactive) | 
C[C@@H]1C[C@@H](O)[C@@]2(O)C13CC(=O)OC(C3)[C@@H](C)[C@@]2(C)CO (stereo partly drawn) | > 100 µM (inactive) | > 100 µM (inactive) | > 100 µM (inactive) | > 100 µM (inactive) | > 100 µM (inactive) | > 100 µM (inactive) | > 100 µM (inactive) | > 100 µM (inactive) | > 100 µM (inactive) | > 100 µM (inactive) | > 100 µM (inactive) | > 100 µM (inactive) | > 100 µM (inactive) | > 100 µM (inactive) | > 100 µM (inactive) | > 100 µM (inactive) | > 100 µM (inactive) | > 100 µM (inactive) | > 100 µM (inactive) | 
CCCCCCCCCCCCCCCCOc1ccc(/C=C/C2=[N+](CCCl)CCO2)cc1 | > 100 µM (inactive) | > 100 µM (inactive) | > 100 µM (inactive) | 42 µM (inactive) | > 100 µM (inactive) | > 100 µM (inactive) | > 100 µM (inactive) | 32.9 µM (inactive) | > 100 µM (inactive) | > 100 µM (inactive) | > 100 µM (inactive) | > 100 µM (inactive) | > 100 µM (inactive) | > 100 µM (inactive) | > 100 µM (inactive) | > 100 µM (inactive) |  | > 100 µM (inactive) |  | > 100 µM (inactive)
O=C(CCN1CCCCC1)Nc1ccc2sc3ccccc3c(=O)c2n1 | 19.7 µM (inactive) | 31.6 µM (inactive) | 14.5 µM (inactive) | > 10 µM (inactive) | 15.9 µM (inactive) | 10.3 µM (inactive) | 12.3 µM (inactive) | 14.6 µM (inactive) | 2.56 µM (inactive) |  | 19.9 µM (inactive) | 15.4 µM (inactive) | 20.2 µM (inactive) | 6.04 µM (inactive) | 9.79 µM (inactive) | 15.3 µM (inactive) | 16.3 µM (inactive) | 28.4 µM (inactive) |  | 10.5 µM (inactive)
